Assay results as given in EP0674635B1, “QUINUCLIDINE DERIVATIVES AS SQUALENE SYNTHASE INHIBITORS” (Syngenta Limited, priority 1992, dated 1994).

Key:
squalene synthase = biological target: T1, squalene synthase (Rattus norvegicus, UniProt Q02769); experiment: Inhibition of squalene synthase (formation of squalene from tritiated farnesyl pyrophosphate, rat liver microsomal protein); format: biochemical; settings: at a concentration of 2.5µM, substrate 20µM
T1 construct: from tissue; host or cells: rat liver microsomes
T1 sequence (Q02769 1-416): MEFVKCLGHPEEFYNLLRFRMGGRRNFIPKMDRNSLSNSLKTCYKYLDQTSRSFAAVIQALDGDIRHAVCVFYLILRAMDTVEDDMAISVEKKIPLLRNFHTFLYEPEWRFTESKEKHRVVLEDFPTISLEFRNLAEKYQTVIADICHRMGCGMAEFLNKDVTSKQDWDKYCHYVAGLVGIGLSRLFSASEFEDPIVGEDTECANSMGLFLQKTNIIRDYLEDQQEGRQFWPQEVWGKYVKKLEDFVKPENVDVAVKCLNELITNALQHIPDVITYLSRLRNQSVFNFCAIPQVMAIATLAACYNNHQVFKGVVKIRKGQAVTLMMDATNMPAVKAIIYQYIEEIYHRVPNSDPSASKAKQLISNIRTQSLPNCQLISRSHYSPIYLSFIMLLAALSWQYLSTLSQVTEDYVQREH
Method: (a) Inhibition of Squalene synthase
In this test, the ability of a compound to prevent the formation of squalene from a radioactive substrate (tritiated farnesyl pyrophosphate) is assessed.
The test compound is incubated at a concentration of 25 micromolar in 200µl of a buffered solution containing potassium phosphate (50mM), MgCl2 (4.95mM), KF (9.9mM), NADPH (0.9mM) and rat liver microsomal protein (20µg). Rat liver microsomes are prepared by the method described in published European Patent Application No. 324,421 and stored in liquid nitrogen prior to assay. Assay vials are kept at 37°C throughout the incubation.
The reaction is started with the addition of the substrate (1-(^3H]-farnesyl pyrophosphate), final concentration 20µM, and stopped after 15 minutes reaction time with the addition of 50µl of 4% KOH. The reaction products are separated from unreacted substrate after application to a C-18 octadecyl 1ccBond column (Analytichem Int product No. 617101). An aqueous fraction is eluted with 250µl of 0.1M KOH. Squalene is then eluted with 1.0 ml 10% ethylacetate in hexane and radioactivity determined. The difference in radioactivity in the presence and absence of the test compound is used to determine the level of inhibition. […] The IC50 can then be determined from a plot of percentage inhibition against concentration of test compound.

[1] = system: de novo hepatic cholesterol synthesis; experiment: Acute rat cholesterol synthesis assay (de novo hepatic cholesterol synthesis from 14C-acetate); format: in vivo; settings: for ED50: 14C-acetate
Method: (b) Acute rat cholesterol synthesis assay.
This is an acute in vivo test in the rat to measure de novo hepatic cholesterol synthesis from exogenously administered ^14C-acetate.
Female rats (35 - 55 g) are housed in reverse lighting conditions (red light from 0200h - 1400h) for a period of about 2 weeks prior to test. Animals are allowed free access to chow and drinking water throughout this period. At test, animals should weigh 125 - 150 g. Test compounds may be administered by oral gavage, dissolved or suspended in 0.5% polysorbate, or by ip or iv dosing. Control animals receive vehicle alone. After 1 hour the rats are injected ip with 25µCi [2-^14C]-acetate (NEN DUPONT. specific activity, 45-60mCi/mmol NEC-085H, or AMERSHAM specific activity, 50-60mCi/mmol CFA 14) in a volume of 0.25 ml saline (100µCi/ml). After a further hour, rats are terminally anaesthetised with halothane and a blood sample obtained from the abdominal vena cava.
1ml of plasma is lyophilised and then saponified in 2ml ethanolic KOH (1 part 33% KOH, 9 parts ethanol) at 75°C for 2 hours. After addition of an equal quantity of water, non-saponifiable lipids are extracted with two 5ml volumes of hexane. The hexane extracts are evaporated to dryness and the residues dissolved in ethanol to determine cholesterol specific radioactivity. ED50 values can be determined in the standard way.

Row | SMILES | inhibition at 2.5 µM (squalene synthase) [%] | ED50 [1] [mg/kg] | reduction in the rate of cholesterol biosynthesis ([1]; dose not given) [%]
1 | OC1(c2ccc(-c3ccc4ccccc4n3)cc2)CN2CCC1CC2 (centres unmarked) [Example 3, 3-[4-(2-quinolyl)phenyl)quinuclidin-3-ol] | ~71 | ~14 | 74
2 | OC1(c2ccc(-c3nc4ccccc4o3)cc2)CN2CCC1CC2 (centres unmarked) [Example 6, 3-[4-(benzoxazol-2-yl)phenyl]quinuclidin-3-ol] |  | ~4.5 | 
3 | OC1(c2ccc(-c3cnc4ccccc4c3)cc2)CN2CCC1CC2 (centres unmarked) [Example 12, 3-[4-quinol-3-ylphenyl]quinculidin-3-ol] |  | ~3.8 | 
